Results from patent US6864247B2, “Therapeutic agents for glomerulosclerosis” (priority 1999, dated 2005).

Legend:
type I collagen (ColI) = experiment: Immunohistological examination of type I collagen expression in the mesangium, anti-Thy 1 nephritis rat; format: in vivo; conditions: 0.4 μg/kg intravenously every two days; day 7; immunohistochemistry
Description: (§1) An anti-Thy 1 antibody (OX-7 purchased from CEDARLANE, Ontario, Canada) was administered into the tail vein of 6-week-old male Wistar rats at 1 mg/kg to induce anti-Thy 1 nephritis. Next day after OX-7 administration, 22-oxa-1α,25-dihydroxyvitamin D3 was intravenously administered at 0.4 μg/kg every two days, and on day 7 after administration, serum, urine and renal tissue were collected.
(§2) For comparison, 1α,25-dihydroxyvitamin D3 was administered in the same manner instead of 22-oxa-1α,25-dihydroxyvitamin D3. Rats not treated with the anti-Thy 1 antibody were used as normal controls. Rats treated with the anti-Thy 1 antibody alone without any vitamin D derivative were used as disease controls.
(§3) In the renal tissue, the expression of type I collagen (ColI) and type IV collagen (ColIV) in the mesangium was immunohistologically examined (FIGS. 4-11). Staining was performed on 4 μm sections using an ABC Elite peroxidase staining kit (Vector Lab., Burlingame, Calif., U.S.A.) according to the manufacturer's instructions. The primary antibodies used were a guinea pig anti-rat type I collagen antibody (Boehringer Ingelheim, Co., Ltd., Ingelheim, Germany) and a rabbit anti-rat type IV collagen antibody (Boehringer Ingelheim, Co., Ltd., Ingelheim, Germany).

human mesangial cells = conditions: literature report; cited from earlier work
[1] = test system: rat model of anti-Thy 1 antibody-induced nephritis; experiment: Urinary albumin by ELISA in anti-Thy 1 nephritis rat; format: in vivo; conditions: 0.4 μg/kg intravenously every two days; day 7; FIG. 13
Description: as §1, §2
In addition, serum calcium (Ca) was determined with an autoanalyzer (AUTOANALYZER, HITACHI 7170, Tokyo, Japan) and urinary albumin (uALB) was determined with an ELISA kit NEPHRAT II (EXOCELL, INC) (FIGS. 12 and 13).

type IV collagen (ColIV) = experiment: Immunohistological examination of type IV collagen expression in the mesangium, anti-Thy 1 nephritis rat; format: in vivo; conditions: 0.4 μg/kg intravenously every two days; day 7; immunohistochemistry
Description: as §1, §2, §3

[2] = test system: rat model of anti-Thy 1 antibody-induced nephritis; experiment: Renal histology (glomerular cell count, glomerulosclerosis index, glomerular volume) in rat model of anti-Thy 1 antibody-induced nephritis; format: in vivo; conditions: 0.4 μg/kg intravenously every two days from the day after OX-7, day 7; for glomerular cell count: FIG. 1; for glomerular volume: FIG. 3; for glomerulosclerosis index: PAM stained samples, FIG. 2
From the text: The pharmacological effect of 22-oxa-1α,25-dihydroxyvitamin D3 used as an active ingredient in the present invention can be evaluated on a rat model of a anti-Thy 1 antibody-induced nephritis characterized by showing increased mesangial cell proliferation and mesangial matrix production after administration of an anti-Thy 1 antibody. The pharmacological effect of test compounds can be evaluated by administering an anti-Thy 1 antibody to such a rat model followed by the test compounds, collecting renal tissue at an appropriate time and determining the glomerular cell count or glomerulosclerosis index or determining the expression of collagen by a standard method such as an immunohistochemical technique.
as §1, §2
In the renal tissue, the glomerular cell count, glomerulosclerosis index and glomerular volume were determined (FIGS. 1, 2 and 3). The “glomerular cell count” was determined by counting every cell in every measurable glomerulus on hematoxylin-eosin stained samples. The “glomerulosclerosis index” was evaluated on PAM (periodic acid-methenamine-silver) stained samples according to the method of Raji et al. The “glomerular volume” was determined by using NIH image to calculate the volume of glomeruli read by an image analyzer.

[3] = described in Japanese Patent No. 2854600; cited from earlier work
[4] = literature report; cited from earlier work

Row | SMILES | expression of ColI in the mesangium (type I collagen (ColI)) | antiproliferative effect on human mesangial cells (human mesangial cells) | uALB levels (urinary albumin) [1] | expression of ColIV in the mesangium (type IV collagen (ColIV)) | glomerular cell count [2] | glomerular volume [2] | glomerulosclerosis index [2] | urinary protein excretion [3] | differentiation-inducing effect [4] | hypercalcemia [4]
1 | C=C1/C(=C\C=C2/CCC[C@]3(C)[C@@H]([C@H](C)CCCC(C)(C)O)CC[C@@H]23)C[C@@H](O)C[C@@H]1O [1α,25-dihydroxyvitamin D3, reference compound] | clearly inhibited | antiproliferative effect | significantly suppressed | clearly inhibited | significantly suppressed | no effect | significantly suppressed |  |  | 
2 | C=C1/C(=C\C=C2/CCC[C@]3(C)[C@@H]([C@H](C)OCCC(C)(C)O)CC[C@@H]23)C[C@@H](O)C[C@@H]1O [22-oxa-1α,25-dihydroxyvitamin D3, 1α,3β-dihydroxy-20α-(3-hydroxy-3-methylbutyloxy)-9,10-seco-5,7,10 (19)-pregnatriene] | clearly inhibited |  | significantly suppressed | clearly inhibited | significantly suppressed | no effect | significantly suppressed | inhibits | show a differentiation-inducing effect | without causing hypercalcemia
